Consider seven molecules from article PMC8356907 (Current analytical chemistry, 2021).

Square brackets hold non-standard residues; d marks the D form.

For experiment [1], the target named is T1, recombinant human caspase 3 (Homo sapiens, UniProt P42574).
T1 sequence (P42574 29-175 limits assumed): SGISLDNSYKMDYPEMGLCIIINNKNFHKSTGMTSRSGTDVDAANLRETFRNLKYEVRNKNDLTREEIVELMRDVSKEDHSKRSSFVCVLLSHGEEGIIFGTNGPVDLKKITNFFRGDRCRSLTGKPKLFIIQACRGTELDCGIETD
T1 sequence (P42574 176-277 limits assumed): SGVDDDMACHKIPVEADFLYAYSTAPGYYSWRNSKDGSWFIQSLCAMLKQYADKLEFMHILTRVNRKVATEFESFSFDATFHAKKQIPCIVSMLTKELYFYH
The note with it: cited from earlier work; for kcat: standard fluorogenic substrates; for Km: standard substrates.

The target in experiment [2] is human integrin αvβ3 purified protein (Homo sapiens, UniProt P05106+P06756). The experiment can be described thus: Solid-phase RGD receptor-binding assay.
The next experiment deals with A549 cells. The experiment in a line: Live cell NIR fluorescence microscopy. The format is cell-based, human. Particulars: 100 μM inhibitor, paclitaxel-treated A549 cells, 4 h.
For experiment [3], the target named is T2, human integrin αvβ3 purified protein (human), P06756.
T2 chain 1: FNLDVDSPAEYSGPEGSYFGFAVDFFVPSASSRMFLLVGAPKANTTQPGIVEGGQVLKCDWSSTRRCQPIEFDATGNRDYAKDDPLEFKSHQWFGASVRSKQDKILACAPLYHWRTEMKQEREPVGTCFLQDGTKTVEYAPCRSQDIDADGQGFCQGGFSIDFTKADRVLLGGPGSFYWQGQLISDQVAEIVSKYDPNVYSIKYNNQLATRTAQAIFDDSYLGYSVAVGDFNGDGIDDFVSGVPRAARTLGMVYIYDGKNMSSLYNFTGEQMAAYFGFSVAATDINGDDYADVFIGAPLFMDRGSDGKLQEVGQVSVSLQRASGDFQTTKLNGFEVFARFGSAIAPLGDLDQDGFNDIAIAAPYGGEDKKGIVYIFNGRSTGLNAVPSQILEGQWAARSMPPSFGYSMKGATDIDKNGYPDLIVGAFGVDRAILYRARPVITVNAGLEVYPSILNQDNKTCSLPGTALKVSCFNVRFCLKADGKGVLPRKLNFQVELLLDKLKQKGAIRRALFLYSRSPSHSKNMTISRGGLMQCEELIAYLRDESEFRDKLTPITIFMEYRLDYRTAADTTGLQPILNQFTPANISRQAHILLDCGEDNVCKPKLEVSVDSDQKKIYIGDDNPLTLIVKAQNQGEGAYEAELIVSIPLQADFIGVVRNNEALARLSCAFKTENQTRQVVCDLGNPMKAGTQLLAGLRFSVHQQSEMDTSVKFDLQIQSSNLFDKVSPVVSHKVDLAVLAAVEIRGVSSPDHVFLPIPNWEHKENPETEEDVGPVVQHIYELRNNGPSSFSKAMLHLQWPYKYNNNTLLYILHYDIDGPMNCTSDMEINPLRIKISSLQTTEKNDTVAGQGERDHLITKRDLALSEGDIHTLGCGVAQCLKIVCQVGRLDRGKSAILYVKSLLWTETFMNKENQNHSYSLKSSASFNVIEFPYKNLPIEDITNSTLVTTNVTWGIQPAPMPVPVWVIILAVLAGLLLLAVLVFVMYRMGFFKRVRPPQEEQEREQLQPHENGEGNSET
T2 chain 2: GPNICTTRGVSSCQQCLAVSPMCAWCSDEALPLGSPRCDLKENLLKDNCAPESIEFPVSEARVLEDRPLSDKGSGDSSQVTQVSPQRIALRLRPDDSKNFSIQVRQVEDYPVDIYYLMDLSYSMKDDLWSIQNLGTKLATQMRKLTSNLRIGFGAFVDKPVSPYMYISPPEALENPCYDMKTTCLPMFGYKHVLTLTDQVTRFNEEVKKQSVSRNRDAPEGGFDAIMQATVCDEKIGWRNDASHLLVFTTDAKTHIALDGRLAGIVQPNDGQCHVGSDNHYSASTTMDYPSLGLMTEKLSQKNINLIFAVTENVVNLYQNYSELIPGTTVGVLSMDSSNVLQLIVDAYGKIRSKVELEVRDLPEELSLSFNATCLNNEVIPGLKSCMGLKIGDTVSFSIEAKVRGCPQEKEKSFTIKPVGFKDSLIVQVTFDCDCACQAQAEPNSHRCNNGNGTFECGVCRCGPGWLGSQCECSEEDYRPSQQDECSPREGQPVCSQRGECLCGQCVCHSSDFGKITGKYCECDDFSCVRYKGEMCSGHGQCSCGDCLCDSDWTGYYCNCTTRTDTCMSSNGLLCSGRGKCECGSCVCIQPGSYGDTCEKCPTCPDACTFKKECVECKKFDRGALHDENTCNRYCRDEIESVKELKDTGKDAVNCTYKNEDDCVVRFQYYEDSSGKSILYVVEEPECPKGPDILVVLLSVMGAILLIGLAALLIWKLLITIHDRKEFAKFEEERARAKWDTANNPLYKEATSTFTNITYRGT
The experiment can be described thus: radioligand binding. Particulars: remark: other sources report otherwise.

The target of experiment [4] is human integrin αvβ3 purified protein (human, UniProt P06756 31-1048; P05106 27-788). The experiment in a line: radioligand binding.

A word on the kcat: it is the maximal rate divided by the concentration of active sites. What is called Km is the concentration of substrate that gives half-maximal velocity. For the molecule Ac-DEVD-AMC, in experiment [1], the kcat is 0.75 s⁻¹ and the Km was 9.7 µM. Take Ac-DEVD-pNA: in experiment [1], the kcat is 2.4 s⁻¹ and the Km is 11 µM. For orientation: Ki means the dissociation constant of the complex between target and ligand, obtained from inhibition or displacement. As for Cypate-c(RGDfK) [LS167], the Ki in experiment [2] (read-out: Ki (nM ± s.d.), corrected Ki, modified Cheng-Prusoff equation, 125I-c(RGDyK) tracer) is 1.62 ± 0.491 nM.

In the case of Z-Asp(Ome)-Glu(Ome)-Val-Asp(OMe)-FMK, the “effect of caspase-3 inhibitor on LS422 fluorescence activation” value in the experiment with A549 cells was “inability to activate the LS422 fluorescence”.

For the molecule cypate-octreotate, the “decrease in the binding affinity” value in experiment [2] (non-RGD peptide control) was > 100 fold.

B1: LS167 (Cypate-c(RGDfK)) (peptide)
peptide: cyclo(RGD[dF]K)
modifications: also: cypate label, position not given here
Regarding B1, in experiment [3], the Ki was determined as 1.62 nM.

B2: 125I-c(RGDyK) (peptide)
peptide: cyclo(RGD[dY]K)
modifications: also: 125I label, site not given here
The Kd is the constant that tells how readily two partners part at equilibrium. In turn, B2 registered a Kd in experiment [4] of 0.4 nM.
